Data on 26 compounds can be found in patent US9969749B2, “Inhibitors of IRAK4 activity” (MERCK SHARP & DOHME CORP., priority 2014, dated 2018).

Chain of IRAK4 (Q9NWZ3 whole entry): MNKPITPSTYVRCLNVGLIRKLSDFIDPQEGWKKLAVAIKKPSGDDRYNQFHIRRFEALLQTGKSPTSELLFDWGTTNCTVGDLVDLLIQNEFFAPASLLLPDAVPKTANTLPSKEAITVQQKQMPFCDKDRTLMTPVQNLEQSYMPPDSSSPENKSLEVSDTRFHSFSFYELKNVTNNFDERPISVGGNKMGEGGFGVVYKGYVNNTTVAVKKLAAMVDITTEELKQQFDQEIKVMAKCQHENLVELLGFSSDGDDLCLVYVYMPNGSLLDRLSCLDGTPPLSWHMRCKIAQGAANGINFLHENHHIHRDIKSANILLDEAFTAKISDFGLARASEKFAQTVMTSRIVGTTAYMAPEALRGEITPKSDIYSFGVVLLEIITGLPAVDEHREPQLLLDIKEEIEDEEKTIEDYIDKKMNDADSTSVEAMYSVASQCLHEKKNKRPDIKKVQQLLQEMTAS

In this experiment the target is IRAK4 (Homo sapiens (Human), UniProt Q9NWZ3). The experiment is described as follows: IRAK4 Kinase Assay (IMAP fluorescence polarization). The note with it: 0.5 nM GST tagged IRAK4, 100 μM ATP, 100 nM fluorescent peptide substrate RP7030, 30 minutes at 25° C. It is filed as biochemical. Put shortly:
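GST-tagged IRAK4 (0.5 nM) phosphorylates 100 nM fluorescent peptide with 100 μM ATP in 10 mM Tris pH 7.2, 1 mM MgCl2, 1 mM DTT, 0.01% Tween 20 for 30 min at 25 °C. Phosphorylation read as IMAP nanoparticle-binding fluorescence polarization after stop reagent.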
A general note: Polarisation of emitted light reports the rotation of a fluorescent probe.
`Cc1cncc(-c2ccc3ncnc(N[C@H]4CC[C@H](N5CCOCC5)CC4)c3c2)c1` [Example 1-93, 6-(5-methylpyridin-3-yl)-N-[trans-4-(morpholin-4-yl)cyclohexyl]quinazolin-4-amine]: half-maximal inhibition (IC50) required 26 nM.

For the compound `OCc1cncc(-c2ccc3ncnc(N[C@H]4CC[C@H](N5CCOCC5)CC4)c3c2)c1` [Example 1-94, [5-(4-{[trans-4-(morpholin-4-yl)cyclohexyl]amino}quinazolin-6-yl)pyridin-3-yl]methanol], the IC50 – broadly, the concentration that inhibits the measured activity by half – is 10 nM.

The compound `CC(C)(O)c1cncc(-c2ccc3ncnc(N[C@H]4CC[C@H](N5CCOCC5)CC4)c3c2)c1` [Example 1-95, 2-[5-(4-{[trans-4-(morpholin-4-yl)cyclohexyl]amino}quinazolin-6-yl)pyridin-3-yl]propan-2-ol] yielded a concentration for half-maximal inhibition (IC50) of 330 nM.

`c1nc(N[C@H]2CC[C@H](N3CCOCC3)CC2)c2cc(-c3cnoc3)ccc2n1` [Example 1-96, 6-(isoxazol-4-yl)-N-[trans-4-(morpholin-4-yl)cyclohexyl]quinazolin-4-amine] returned a half-maximal inhibitory concentration (IC50) of 9 nM.

In turn, `Fc1cncc(-c2ccc3ncnc(N[C@H]4CC[C@H](N5CCOCC5)CC4)c3c2)c1` [Example 1-97, 6-(5-fluoropyridin-3-yl)-N-[trans-4-(morpholin-4-yl)cyclohexyl]quinazolin-4-amine] came in with an IC50 of 22 nM.

In turn, `N#Cc1cncc(-c2ccc3ncnc(N[C@H]4CC[C@H](N5CCOCC5)CC4)c3c2)c1` [Example 1-98, 5-(4-{[trans-4-(morpholin-4-yl)cyclohexyl]amino}quinazolin-6-yl)pyridine-3-carbonitrile] gave an IC50 of 21 nM.

Turning to `Clc1cncc(-c2ccc3ncnc(N[C@H]4CC[C@H](N5CCOCC5)CC4)c3c2)c1` [Example 1-99, 6-(5-chloropyridin-3-yl)-N-[trans-4-(morpholin-4-yl)cyclohexyl]quinazolin-4-amine], the IC50 stood at 11 nM.

`Oc1cc(-c2ccc3ncnc(N[C@H]4CC[C@H](N5CCOCC5)CC4)c3c2)cnc1Cl` [Example 1-100, 2-chloro-5-(4-{[trans-4-(morpholin-4-yl)cyclohexyl]amino}quinazolin-6-yl)pyridin-3-ol] came in with a 50% inhibitory concentration (IC50) of 1 nM.

`CCOC(=O)c1cn(C)nc1-c1ccc2ncnc(N[C@H]3CC[C@H](N4CCOCC4)CC3)c2c1` [Example 2-1, Ethyl 1-methyl-3-(4-(((trans)-4-morpholinocyclohexyl)amino)quinazolin-6-yl)-1H-pyrazole-4-carboxylate] displayed an IC50 of 6030 nM.

For `Cc1nc(-c2ccc3ncnc(N[C@H]4CC[C@H](N5CCOCC5)CC4)c3c2)cs1` [Example 2-2, 6-(2-methyl-1,3-thiazol-4-yl)-N-(trans-4-morpholin-4-ylcyclohexyl)quinazolin-4-amine], half-maximal inhibition (IC50) required 92 nM.

`CC(C)c1nc(-c2ccc3ncnc(N[C@H]4CC[C@H](N5CCOCC5)CC4)c3c2)cs1` [Example 2-3, 6-[2-(1-methylethyl)-1,3-thiazol-4-yl]-N-(trans-4-morpholin-4-ylcyclohexyl)quinazolin-4-amine] had an IC50 of 390 nM.

Compound `FC(F)(F)c1cncc(-c2ccc3ncnc(N[C@H]4CC[C@H](N5CCOCC5)CC4)c3c2)c1` [Example 2-4, N-(trans-4-morpholin-4-ylcyclohexyl)-6-[5-(trifluoromethyl)pyridin-3-yl]quinazolin-4-amine] yielded a half-maximal inhibitory concentration (IC50) of 119 nM.

Turning to `Oc1ncc(C(F)(F)F)cc1-c1ccc2ncnc(N[C@H]3CC[C@H](N4CCOCC4)CC3)c2c1` [Example 2-5, 3-{4-[(trans-4-morpholin-4-ylcyclohexyl)amino]quinazolin-6-yl}-5-(trifluoromethyl)pyridin-2-ol], the IC50 stood at 928 nM.

Take `Nc1cc(-c2ccc3ncnc(N[C@H]4CC[C@H](N5CCOCC5)CC4)c3c2)cnc1F` [Example 2-7, 6-(5-amino-6-fluoropyridin-3-yl)-N-(trans-4-morpholin-4-ylcyclohexyl)quinazolin-4-amine]: the midpoint of inhibition, the IC50, lay at 1 nM.

`O=C(O)c1cccc(-c2ccc3ncnc(N[C@H]4CC[C@H](N5CCOCC5)CC4)c3c2)n1` [Example 2-8, 6-{4-[(trans-4-morpholin-4-ylcyclohexyl)amino]quinazolin-6-yl}pyridine-2-carboxylic acid] gave an IC50 of 122 nM.

In the case of `Fc1c[nH]nc1-c1ccc2ncnc(N[C@H]3CC[C@H](N4CCOCC4)CC3)c2c1` [Example 2-9, 6-(4-fluoro-1H-pyrazol-3-yl)-N-(trans-4-morpholin-4-ylcyclohexyl)quinazolin-4-amine], it took 12 nM to reach half-maximal inhibition (IC50).

`N#Cc1n[nH]cc1-c1ccc2ncnc(N[C@H]3CC[C@H](N4CCOCC4)CC3)c2c1` [Example 2-10, 4-{4-[(trans-4-morpholin-4-ylcyclohexyl)amino]quinazolin-6-yl}-1H-pyrazole-3-carbonitrile] registered an IC50 of 8 nM.

As to `N#Cc1nn[nH]c1-c1ccc2ncnc(N[C@H]3CC[C@H](N4CCOCC4)CC3)c2c1` [Example 2-11, 5-{4-[(trans-4-morpholin-4-ylcyclohexyl)amino]quinazolin-6-yl}-1H-1,2,3-triazole-4-carbonitrile], the half-inhibitory concentration (IC50) turned out to be 62 nM.

The compound `Cn1cc(-c2ccc3ncnc(N[C@H]4CC[C@H](N5CCOCC5)CC4)c3c2)c(CO)n1` [Example 2-12, (1-methyl-4-{4-[(trans-4-morpholin-4-ylcyclohexyl)amino]quinazolin-6-yl}-1H-pyrazol-3-yl)methanol] yielded an IC50 of 261 nM.

On to `Cn1nccc1-c1ccc2ncnc(N[C@H]3CC[C@H](N4CCOCC4)CC3)c2c1` [Example 2-13, 6-(1-methyl-1H-pyrazol-5-yl)-N-(trans-4-morpholin-4-ylcyclohexyl)quinazolin-4-amine], for which the half-maximal inhibitory concentration (IC50) was 324 nM.

Compound `FC(F)(F)c1n[nH]cc1-c1ccc2ncnc(N[C@H]3CC[C@H](N4CCOCC4)CC3)c2c1` [Example 2-14, N-(trans-4-morpholin-4-ylcyclohexyl)-6-[3-(trifluoromethyl)-1H-pyrazol-4-yl]quinazolin-4-amine] registered an IC50 of 80 nM.

In turn, `Cn1nncc1-c1ccc2ncnc(N[C@H]3CC[C@H](N4CCOCC4)CC3)c2c1` [Example 2-15, 6-(1-methyl-1H-1,2,3-triazol-5-yl)-N-(trans-4-morpholin-4-ylcyclohexyl)quinazolin-4-amine] displayed an IC50 of 152 nM.

Regarding `c1nc(N[C@H]2CC[C@H](N3CCOCC3)CC2)c2cc(-c3cnc4c(c3)NCC4)ccc2n1` [Example 2-16, 6-(2,3-dihydro-1H-pyrrolo[3,2-b]pyridin-6-yl)-N-[trans-4-(morpholin-4-yl)cyclohexyl]quinazolin-4-amine], the IC50 worked out at 48 nM.

On to `N#Cc1sccc1-c1ccc2ncnc(N[C@H]3CC[C@H](N4CCOCC4)CC3)c2c1` [Example 2-17, 3-(4-{[trans-4-(morpholin-4-yl)cyclohexyl]amino}quinazolin-6-yl)thiophene-2-carbonitrile], for which the IC50 is 41 nM.

The compound `N#Cc1cscc1-c1ccc2ncnc(N[C@H]3CC[C@H](N4CCOCC4)CC3)c2c1` [Example 2-18, 4-(4-{[trans-4-(morpholin-4-yl)cyclohexyl]amino}quinazolin-6-yl)thiophene-3-carbonitrile] returned a concentration for half-maximal inhibition (IC50) of 52 nM.

`Cc1nc[nH]c1-c1ccc2ncnc(N[C@H]3CC[C@H](N4CCOCC4)CC3)c2c1` [Example 2-19, 6-(4-methyl-1H-imidazol-5-yl)-N-[trans-4-(morpholin-4-yl)cyclohexyl]quinazolin-4-amine]: half-maximal inhibition (IC50) required 184 nM.
